Test system: thoracic aorta ring of a Wistar rat
Test: Vasodilating test on phenylephrine-preconstricted aorta ring (Magnus apparatus)
Settings: at 10 mM (printed 10 mm); aorta ring preconstricted with 1 μM phenylephrine
Experimental: The thoracic aorta of a Wistar rat was taken out, cut into 2 mm long, and made into an aorta ring. The ring was set in a Magnus apparatus (product name “micro tissue organ bath MTB-1Z”, manufactured by LABO SUPPORT CO., LTD.), and allowed to equilibrate with a constant tension. The constriction response of the aorta ring was confirmed with 50 mM KCl.
Next, the aorta ring was preliminarily constricted with 1 μM phenylephrine, and VPP and IPP prepared in Synthesis Example were added at ten-fold increasing concentrations from 10^−9 M to observe the vasodilator response through the change in tension of the aorta ring. The dose dependency of the vasodilator response was also studied.
The vasodilating test was conducted in the same way as in Example 1, except that the tripeptides VPP and IPP were replaced with amino acids, valine (Val) and proline (Pro), at the same concentration.

CC(C)[C@H](N)C(=O)O [Val, valine]
vasodilator response (change in tension of the aorta ring): no vasodilator response was observed

O=C(O)[C@@H]1CCCN1 [Pro, proline]
vasodilator response (change in tension of the aorta ring): no vasodilator response was observed

Reference: patent publication US20090234097A1, “VASODILATOR” (CALPIS CO., LTD., priority 2006, published 2009)
